Assay results from patent US7138361B2, “Herbicidal heterocycles” (E. I. du Pont de Nemours and Company, priority 2000, dated 2006).

Tests used:
Type in all cases: in vivo
Sunflower = test: Test C preemergence; conditions: Rate 500 g/ha, visual evaluation after 12 to 14 days
[1] = test system: barnyardgrass (Echinochloa crus-galli); test: Test C flooded paddy test; conditions: for Barnyardgrass plant response rating: Flooded Paddy, scale 0 to 100, 0 no effect, 100 complete control; for Plant response rating, Barnyardgrass: flooded paddy test, scale 0 to 100 (0 no effect, 100 complete control)
Outline: (§1)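 Visually assessed vs untreated controls 12–14 d post-treatment (greenhouse). Flooded paddy plants were at the 2-leaf stage; scale 0 = no effect, 100 = complete control.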

rice (Oryza saliva) = test: Test C flooded paddy test; conditions: for Rice plant response rating: Flooded Paddy, scale 0 to 100, 0 no effect, 100 complete control; for Plant response rating, Rice: flooded paddy test, scale 0 to 100 (0 no effect, 100 complete control)
Outline: as §1

kochia (Kochia scoparia) = test: Test C preemergence; conditions: for Plant response rating, Kochia: scale 0 to 100, 0 no effect, 100 complete control; for Plant response rating (0 to 100), Kochia: visual evaluation after 12 to 14 days
Excerpt: (§2) Seeds of plant species selected from bermudagrass (Cynodon dactylon), Surinam grass (Brachiaria decumbens), cocklebur (Xanthium strumarium), corn (Zea mays), crabgrass (Digitaria sanguinalis), woolly cupgrass (Eriochloa villosa), giant foxtail (Setaria faberii), goosegrass (Eleusine indica), johnsongrass (Sorghum halepense), kochia (Kochia scoparia), lambsquarters (Chenopodium album), morningglory (Ipomoea hederacea), yellow nutsedge (Cyperus esculentus), pigweed (Amaranthus retroflexus), common ragweed (Ambrosia elatior), soybean (Glycine max) and velvetleaf (Abutilon theophrasti) were planted and treated preemergence with test chemicals formulated in a non-phytotoxic solvent mixture which included a surfactant.
(§3) At the same time, plants selected from these crop and weed species and also winter barley (Hordeum vulgare), blackgrass (Alopecurus myosuroides), canary grass (Phalaris minor), chickweed (Stellaria media), downy brome (Bromus tectorum), green foxtail (Setaria viridis), Italian ryegrass (Lolium multiflorum), wheat (Triticum aestivum), wild oat (Avena fatua) and windgrass (Apera spica-venti) were treated with postemergence applications of some of the test chemicals formulated in the same manner. Plants ranged in height from 2 to 18 cm (1- to 4-leaf stage) for postemergence treatments. Plant species in the flooded paddy test consisted of rice (Oryza saliva), smallflower flatsedge (Cyperus difformis), duck salad (Heteranthera limosa) and barnyardgrass (Echinochloa crus-galli) grown to the 2-leaf stage for testing. Treated plants and controls were maintained in a greenhouse for 12 to 14 days, after which time all species were compared to controls and visually evaluated. Plant response ratings, summarized in Table C, are based on a scale of 0 to 100 where 0 is no effect and 100 is complete control. A dash (-) response means no test result.

corn (Zea mays) = test: Test C preemergence; conditions: for Plant response rating, Corn: scale 0 to 100, 0 no effect, 100 complete control; for Plant response rating (0 to 100), Corn: visual evaluation after 12 to 14 days
Excerpt: as §2, §3

[2] = test system: cocklebur (Xanthium strumarium); test: Test C preemergence; conditions: for Plant response rating, Cocklebur: scale 0 to 100, 0 no effect, 100 complete control; for Plant response rating (0 to 100), Cocklebur: visual evaluation after 12 to 14 days
Excerpt: as §2, §3

soybean (Glycine max) = test: Test C preemergence; conditions: preemergence; for Plant response rating, Soybean: scale 0 to 100, 0 no effect, 100 complete control
Excerpt: as §2, §3

[3] = test system: velvetleaf (Abutilon theophrasti); test: Test C preemergence; conditions: preemergence; for Plant response rating, Velvetleaf: scale 0 to 100, 0 no effect, 100 complete control
Excerpt: as §2, §3

[4] = test system: johnsongrass (Sorghum halepense); test: Test C preemergence; conditions: for Plant response rating, Johnsongrass: scale 0 to 100, 0 no effect, 100 complete control; for Plant response rating (0 to 100), Johnsongrass: visual evaluation after 12 to 14 days
Excerpt: as §2, §3

[5] = test system: lambsquarters (Chenopodium album); test: Test C preemergence; conditions: for Plant response rating, Lambsquarters: scale 0 to 100, 0 no effect, 100 complete control
Excerpt: as §2, §3

[6] = test system: goosegrass (Eleusine indica); test: Test C preemergence; conditions: for Plant response rating, Goosegrass: scale 0 to 100, 0 no effect, 100 complete control; for Plant response rating (0 to 100), Goosegrass: visual evaluation after 12 to 14 days
Excerpt: as §2, §3

[7] = test system: bermudagrass (Cynodon dactylon); test: Test C preemergence; conditions: for Plant response rating, Bermudagrass: scale 0 to 100, 0 no effect, 100 complete control; for Plant response rating (0 to 100 where 0 is no effect and 100 is complete control), Bermudagrass: visual evaluation after 12 to 14 days
Excerpt: as §2, §3

[8] = test system: giant foxtail (Setaria faberii); test: Test C preemergence; conditions: for Plant response rating, Foxtail, Giant: scale 0 to 100, 0 no effect, 100 complete control; for Plant response rating (0 to 100), Foxtail, Giant: visual evaluation after 12 to 14 days
Excerpt: as §2, §3

[9] = test system: yellow nutsedge (Cyperus esculentus); test: Test C preemergence; conditions: for Plant response rating, Nutsedge: scale 0 to 100, 0 no effect, 100 complete control
Excerpt: as §2, §3

[10] = test system: crabgrass (Digitaria sanguinalis); test: Test C preemergence; conditions: for Plant response rating, Crabgrass: scale 0 to 100, 0 no effect, 100 complete control; for Plant response rating (0 to 100), Crabgrass: visual evaluation after 12 to 14 days
Excerpt: as §2, §3

[11] = test system: woolly cupgrass (Eriochloa villosa); test: Test C preemergence; conditions: for Plant response rating, Cupgrass, Woolly: scale 0 to 100, 0 no effect, 100 complete control; for Plant response rating (0 to 100), Cupgrass, Woolly: visual evaluation after 12 to 14 days
Excerpt: as §2, §3

[12] = test system: common ragweed (Ambrosia elatior); test: Test C preemergence; conditions: preemergence; for Plant response rating, Ragweed, Common: scale 0 to 100, 0 no effect, 100 complete control
Excerpt: as §2, §3

[13] = test system: morningglory (Ipomoea hederacea); test: Test C preemergence; conditions: for Plant response rating, Morningglory: scale 0 to 100, 0 no effect, 100 complete control
Excerpt: as §2, §3

[14] = test system: pigweed (Amaranthus retroflexus); test: Test C preemergence; conditions: preemergence; for Plant response rating, Pigweed: scale 0 to 100, 0 no effect, 100 complete control
Excerpt: as §2, §3

Nightshade = test: Test C preemergence; conditions: scale 0 to 100, 0 no effect, 100 complete control
Excerpt: as §2, §3

[15] = test system: Surinam grass (Brachiaria decumbens); test: Test C preemergence; conditions: for Plant response rating, Surinam grass: scale 0 to 100, 0 no effect, 100 complete control; for Plant response rating (0 to 100), Surinam grass: visual evaluation after 12 to 14 days
Excerpt: as §2, §3

[16] = Rate 500 g/ha, visual evaluation after 12 to 14 days
[17] = preemergence, Rate 500 g/ha, visual evaluation after 12 to 14 days

CCOC(=O)c1cccc(N2CCC(n3ccc(C(C)(C)C)n3)C2=O)c1 (stereo not shown) [Compound 72]
40: Rice plant response rating (rice (Oryza saliva); Rate 250 g/ha) | Plant response rating (0 to 100), Velvetleaf [3, 16] | Plant response rating (0 to 100), Johnsongrass ([4]; preemergence, Rate 500 g/ha)
100: Plant response rating (0 to 100), Kochia (kochia (Kochia scoparia); preemergence, Rate 500 g/ha) | Plant response rating, Kochia (kochia (Kochia scoparia); preemergence, Rate 125 g/ha) | Plant response rating (0 to 100), Lambsquarters [5, 17] | Plant response rating, Lambsquarters ([5]; preemergence, Rate 125 g/ha) | Plant response rating, Lambsquarters ([5]; preemergence, Rate 250 g/ha) | Plant response rating (0 to 100 where 0 is no effect and 100 is complete control), Bermudagrass ([7]; preemergence, Rate 500 g/ha) | Plant response rating (0 to 100), Crabgrass ([10]; preemergence, Rate 250 g/ha) | Plant response rating (0 to 100), Crabgrass ([10]; preemergence, Rate 500 g/ha) | Plant response rating, Crabgrass ([10]; preemergence, Rate 125 g/ha) | Plant response rating (0 to 100), Morningglory [13, 17] | Plant response rating (0 to 100), Pigweed [14, 16] | Plant response rating, Pigweed ([14]; Rate 125 g/ha)
10: Plant response rating (0 to 100), Cocklebur ([2]; preemergence, Rate 250 g/ha) | Plant response rating, Velvetleaf ([3]; Rate 250 g/ha) | Plant response rating, Cupgrass, Woolly ([11]; preemergence, Rate 125 g/ha) | Plant response rating, Morningglory ([13]; preemergence, Rate 250 g/ha) | Plant response rating, Nightshade (Nightshade; Rate 125 g/ha)
70: Plant response rating (0 to 100), Cocklebur ([2]; preemergence, Rate 500 g/ha) | Plant response rating, Goosegrass ([6]; preemergence, Rate 125 g/ha) | Plant response rating (0 to 100), Foxtail, Giant ([8]; preemergence, Rate 250 g/ha) | Plant response rating, Foxtail, Giant ([8]; preemergence, Rate 125 g/ha) | Plant response rating (0 to 100), Cupgrass, Woolly ([11]; preemergence, Rate 500 g/ha) | Plant response rating, Ragweed, Common ([12]; Rate 250 g/ha)
20: Plant response rating, Rice (rice (Oryza saliva); Rate 125 g/ha) | Plant response rating (0 to 100), Soybean (soybean (Glycine max); [16]) | Plant response rating, Goosegrass ([6]; Rate 62 g/ha) | Plant response rating (0 to 100), Nutsedge [9, 17] | Plant response rating, Nutsedge ([9]; preemergence, Rate 250 g/ha)
60: Plant response rating (0 to 100), Sunflower (Sunflower)
90: Plant response rating (0 to 100), Kochia (kochia (Kochia scoparia); preemergence, Rate 250 g/ha) | Plant response rating (0 to 100), Goosegrass ([6]; preemergence, Rate 500 g/ha) | Plant response rating (0 to 100 where 0 is no effect and 100 is complete control), Bermudagrass ([7]; preemergence, Rate 250 g/ha) | Plant response rating, Bermudagrass ([7]; preemergence, Rate 125 g/ha) | Plant response rating (0 to 100), Foxtail, Giant ([8]; preemergence, Rate 500 g/ha) | Plant response rating, Crabgrass ([10]; Rate 62 g/ha) | Plant response rating (0 to 100), Ragweed, Common [12, 16]
30: Plant response rating, Kochia (kochia (Kochia scoparia); Rate 62 g/ha) | Plant response rating, Cocklebur ([2]; preemergence, Rate 125 g/ha) | Plant response rating, Foxtail, Giant ([8]; Rate 62 g/ha) | Plant response rating, Morningglory ([13]; preemergence, Rate 125 g/ha) | Plant response rating, Nightshade (Nightshade; Rate 62 g/ha) | Plant response rating, Nightshade (Nightshade; Rate 250 g/ha) | Plant response rating, Surinam grass ([15]; preemergence, Rate 125 g/ha)
0: Plant response rating, Barnyardgrass ([1]; Rate 62 g/ha) | Plant response rating, Rice (rice (Oryza saliva); Rate 62 g/ha) | Plant response rating, Corn (corn (Zea mays); Rate 62 g/ha) | Plant response rating (0 to 100), Corn (corn (Zea mays); preemergence, Rate 250 g/ha) | Plant response rating (0 to 100), Corn (corn (Zea mays); preemergence, Rate 500 g/ha) | Plant response rating, Corn (corn (Zea mays); preemergence, Rate 125 g/ha) | Plant response rating, Cocklebur ([2]; Rate 62 g/ha) | Plant response rating, Soybean (soybean (Glycine max); Rate 125 g/ha) | Plant response rating, Soybean (soybean (Glycine max); Rate 250 g/ha) | Plant response rating, Velvetleaf ([3]; Rate 125 g/ha) | Plant response rating, Johnsongrass ([4]; Rate 62 g/ha) | Plant response rating (0 to 100), Johnsongrass ([4]; preemergence, Rate 250 g/ha) | Plant response rating, Johnsongrass ([4]; preemergence, Rate 125 g/ha) | Plant response rating, Lambsquarters ([5]; Rate 62 g/ha) | Plant response rating, Bermudagrass ([7]; Rate 62 g/ha) | Plant response rating, Nutsedge ([9]; Rate 62 g/ha) | Plant response rating, Nutsedge ([9]; preemergence, Rate 125 g/ha) | Plant response rating, Cupgrass, Woolly ([11]; Rate 62 g/ha) | Plant response rating, Ragweed, Common ([12]; Rate 125 g/ha) | Plant response rating, Morningglory ([13]; Rate 62 g/ha) | Plant response rating, Pigweed ([14]; Rate 250 g/ha) | Plant response rating, Surinam grass ([15]; Rate 62 g/ha)
80: Barnyardgrass plant response rating ([1]; Rate 500 g/ha) | Plant response rating (0 to 100), Goosegrass ([6]; preemergence, Rate 250 g/ha) | Plant response rating (0 to 100), Cupgrass, Woolly ([11]; preemergence, Rate 250 g/ha) | Plant response rating (0 to 100), Surinam grass ([15]; preemergence, Rate 250 g/ha)
50: Barnyardgrass plant response rating ([1]; Rate 250 g/ha) | Plant response rating, Barnyardgrass ([1]; Rate 125 g/ha) | Rice plant response rating (rice (Oryza saliva); Rate 500 g/ha) | Plant response rating (0 to 100), Surinam grass ([15]; preemergence, Rate 500 g/ha)
